Columns and labels:
[1] = molecular target: T1, human PDE4B1 (Homo sapiens, UniProt Q07343); assay: TR-FRET assay using the LANCE Ultra cAMP kit to determine the activity of hPDE4B1; assay type: biochemical; settings: test substrate concentration of 10 μM, read-out: Inhibition of PDE4B, Inhibition in %
T1 construct: host or cells: Sf9 cells
Source text: TR-FRET Assay Using the LANCE® Ultra cAMP Kit to Determine the Activity of hPDE4B1
The effects of the compounds on the activity of the human PDE4B1 was quantified by measuring the production of 5′AMP from cAMP using a human recombinant enzyme expressed in Sf9 cells and the LANCE® Ultra cAMP kit, a TR-FRET detection method from PerkinElmer. The human PDE4B1 enzyme was purchased from SignalChem Lifesciences (Catalog #P92-31BG, Lot #H296-2).
The test compound, reference compound or water (control) was mixed with the enzyme (0.96 U) in a reaction buffer containing 50 mM Tris-HCl, 50 mM MgCl2 and 5 mM DTT (pH 8.5). Thereafter, the reaction was initiated by addition of 500 nM cAMP (substrate) and the mixture was incubated for 30 minutes at room temperature. For control basal measurements, the enzyme was omitted from the reaction mixture. After 30 minutes, the reaction was stopped and diluted by a factor of 100 with the reaction buffer supplemented with 500 μM IBMX. The fluorescence donor (europium chelate-labeled cAMP) and the fluorescence acceptor (anti-cAMP antibody labeled with the ULight™ dye) were then added together with 500 μM IBMX to a 10 μl aliquot. After 60 minutes, the fluorescence transfer corresponding to the amount of residual cAMP was measured at λex=337 nm, λem=620 nm and λem=665 nm using a microplate reader (PHERAstar, BMG). The enzyme activity was determined by dividing the signal measured at 665 nm by that measured at 620 nm (ratio) multiplied by 10000. The results were expressed as percent inhibition of the control enzyme activity. IC50 values (IC50=concentration causing a half-maximal inhibition of control specific activity) were derived from dose response measurements with ten different concentrations (n=3; N=1-3).

[2] = molecular target: T1, human PDE4B1; assay: cAMP HTRF assay to determine the activity of hPDE4B1; assay type: biochemical; settings: test substrate concentration of 1 μM, read-out: Inhibition of PDE4B, Inhibition in %
Description: cAMP HTRF® Assay to Determine the Activity of hPDE4B1
The inhibiting effect of the compounds on the enzyme activity of human PDE4B1 was measured by the quantification of 5′-adenosine monophosphate (5′-AMP), which is formed from 3′,5′-cyclic adenosine monophosphate (cAMP). Human recombinant enzyme, expressed in Sf9 cells, and the HTRF (homogeneous time-resolved fluorescence) detection method were used in the assay.
The test compound or water (control) was mixed with the human recombinant PDE4B1 enzyme (4.8 U) in a buffer consisting of 44.4 mM tris-HCl, 5.28 mM MgCl2, 2.64 mM DTT and 0.044% Tween 20 (pH 7.8). After adding the cAMP enzyme substrate (final concentration 40 nM), the mixture was incubated for 30 minutes at room temperature. Then a fluorescence acceptor (Dye2 marked with cAMP), a fluorescence donor (anti-cAMP antibody marked with a europium cryptate) and the non-specific phosphodiesterase inhibitor IBMX (3-isobutyl-1-methylxanthine; final concentration 1 mM) were added. After 60 minutes the fluorescence transfer, which correlates with the amount of remaining cAMP, was measured with a microplate reader (Rubystar, BMG) at λex=337 nm, λem=620 nm and λem=665 nm. The enzyme activity was calculated from the quotient formed from the measured signal at 665 nm and that at 620 nm. The result was expressed as the percentage inhibition of enzyme activity of the control (without PDE4 inhibitor). The enzyme was omitted for measurement of the basal control. IC50 values (IC50=concentration causing a half-maximal inhibition of control specific activity) were derived from dose response measurements with eight different concentrations (n=2; N=1-3).
Literature: N. Saldou et al., Comparison of recombinant human PDE4 isoforms: interaction with substrate and inhibitors, Cell. Signal. Vol. 10, No. 6, 427-440, 1998

T1 sequence (Q07343 whole entry): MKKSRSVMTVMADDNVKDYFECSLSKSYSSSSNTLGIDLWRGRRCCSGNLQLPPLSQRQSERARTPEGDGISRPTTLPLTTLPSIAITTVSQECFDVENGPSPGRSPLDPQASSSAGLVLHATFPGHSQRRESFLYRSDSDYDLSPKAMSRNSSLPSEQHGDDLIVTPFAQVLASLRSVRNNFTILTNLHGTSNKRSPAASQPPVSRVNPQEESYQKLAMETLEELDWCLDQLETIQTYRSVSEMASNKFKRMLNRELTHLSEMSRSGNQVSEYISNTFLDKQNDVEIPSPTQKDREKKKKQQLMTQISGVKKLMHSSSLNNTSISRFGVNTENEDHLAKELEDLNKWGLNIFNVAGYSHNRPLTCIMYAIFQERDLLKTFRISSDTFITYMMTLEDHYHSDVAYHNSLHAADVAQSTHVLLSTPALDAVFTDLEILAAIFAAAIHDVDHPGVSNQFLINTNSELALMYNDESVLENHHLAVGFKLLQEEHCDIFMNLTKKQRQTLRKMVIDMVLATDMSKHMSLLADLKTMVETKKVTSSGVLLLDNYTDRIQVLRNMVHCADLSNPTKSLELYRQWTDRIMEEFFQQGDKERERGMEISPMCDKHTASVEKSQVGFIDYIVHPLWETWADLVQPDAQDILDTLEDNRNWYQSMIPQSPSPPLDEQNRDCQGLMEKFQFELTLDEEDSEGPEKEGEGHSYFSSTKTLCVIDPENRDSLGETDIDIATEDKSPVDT

inhibition at 10 µM [1] | melting point | inhibition at 1 µM [2] | SMILES
101% | 248 to 252 °C | – | CC(O)c1ccc(F)c(-c2cnc(-n3nc(C4CC4)c4ccc(C(=O)N(C)CC(N)=O)cc43)nc2)c1 (stereo not shown) [Compound No. 53, N-(2-Amino-2-oxoethyl)-3-cyclopropyl-1-(5-(2-fluoro-5-(1-hydroxyethyl)phenyl)pyrimidin-2-yl)-N-methyl-1H-indazole-6-carboxamide]
107% | 211 to 215 °C | – | CC(C)(O)c1ccc(F)c(-c2cnc(-n3nc(C4CC4)c4ccc(C(=O)N5CCOCC5)cc43)nc2)c1 [Compound No. 54, (3-Cyclopropyl-1-(5-(2-fluoro-5-(2-hydroxypropan-2-yl)phenyl)pyrimidin-2-yl)-1H-indazol-6-yl)(morpholino)methanone]
103% | 155 to 158 °C | – | CCOc1ccc(F)c(-c2cnc(-n3nc(C4CC4)c4ccc(C(=O)N5CCOCC5)cc43)nc2)c1 [Compound No. 51, (3-Cyclopropyl-1-(5-(5-ethoxy-2-fluorophenyl)pyrimidin-2-yl)-1H-indazol-6-yl)(morpholino)methanone]
95% | 228 to 231 °C | – | CCOc1ccc(F)c(-c2cnc(-n3nc(C4CC4)c4ccc(C(=O)N(C)CC(N)=O)cc43)nc2)c1 [Compound No. 50, N-(2-Amino-2-oxoethyl)-3-cyclopropyl-1-(5-(5-ethoxy-2-fluorophenyl)pyrimidin-2-yl)-N-methyl-1H-indazole-6-carboxamide]
96% | 311 to 315 °C | – | CN(CC(N)=O)C(=O)c1ccc2c(C3CC3)nn(-c3ncc(-c4cc(S(C)(=O)=O)ccc4F)cn3)c2c1 [Compound No. 59, N-(2-Amino-2-oxoethyl)-3-cyclopropyl-1-(5-(2-fluoro-5-(methylsulfonyl)phenyl)pyrimidin-2-yl)-N-methyl-1H-indazole-6-carboxamide]
100% | 254 to 257 °C | – | CCOc1ccc(F)c(-c2cnc(-n3nc(C)c4ccc(C(=O)N(C)CC(N)=O)cc43)nc2)c1 [Compound No. 60, N-(2-Amino-2-oxoethyl)-1-(5-(5-ethoxy-2-fluorophenyl)pyrimidin-2-yl)-N,3-dimethyl-1H-indazole-6-carboxamide]
120% | 274 to 277 °C | – | CN(CC(N)=O)C(=O)c1ccc2c(C3CC3)nn(-c3ncc(-c4cc([S+](C)[O-])ccc4F)cn3)c2c1 (stereo not shown) [Compound No. 57]
115% | 177 to 180 °C | – | CN(CC(N)=O)C(=O)c1ccc2c(C3CC3)nn(-c3ncc(-c4cc(C(C)(C)O)ccc4F)cn3)c2c1 [Compound No. 55, N-(2-Amino-2-oxoethyl)-3-cyclopropyl-1-(5-(2-fluoro-5-(2-hydroxypropan-2-yl)phenyl)pyrimidin-2-yl)-N-methyl-1H-indazole-6-carboxamide]
108% | 187 to 190 °C | – | Cc1nn(-c2ncc(-c3cc(C(C)(C)O)ccc3F)cn2)c2cc(C(=O)N(C)CC(N)=O)ccc12 [Compound No. 62, N-(2-Amino-2-oxoethyl)-1-(5-(2-fluoro-5-(2-hydroxypropan-2-yl)phenyl)pyrimidin-2-yl)-N,3-dimethyl-1H-indazole-6-carboxamide]
106% | 243 to 247 °C | – | C[S+]([O-])c1ccc(F)c(-c2cnc(-n3nc(C4CC4)c4ccc(C(=O)N5CCOCC5)cc43)nc2)c1 (stereo not shown) [Compound No. 56, (3-Cyclopropyl-1-(5-(2-fluoro-5-(methylsulfinyl)phenyl)pyrimidin-2-yl)-1H-indazol-6-yl)(morpholino)methanone]
105% | 276 to 280 °C | – | CS(=O)(=O)c1ccc(F)c(-c2cnc(-n3nc(C4CC4)c4ccc(C(=O)N5CCOCC5)cc43)nc2)c1 [Compound No. 58, (3-Cyclopropyl-1-(5-(2-fluoro-5-(methylsulfonyl)phenyl)pyrimidin-2-yl)-1H-indazol-6-yl)(morpholino)methanone]
– | 235 to 237 °C | 102% | CC(C)(O)c1nn(-c2ncc(-c3ccccc3F)cn2)c2cc(C(=O)N3CCOCC3)ccc12 [Compound No. 31]
– | 232 to 235 °C | 73% | O=C(c1cc2c(cn1)c(C1CC1)nn2-c1ncc(-c2ccccc2F)cn1)N1CCOCC1 [Compound No. 29, (3-Cyclopropyl-1-(5-(2-fluorophenyl)pyrimidin-2-yl)-1H-pyrazolo[4,3-c]pyridin-6-yl)(morpholino)methanone]
– | 252 to 255 °C | 99% | O=C1CN(C(=O)c2ccc3c(C4CC4)nn(-c4ncc(-c5ccccc5F)cn4)c3c2)CCN1 [Compound No. 16, 4-(3-Cyclopropyl-1-(5-(2-fluorophenyl)pyrimidin-2-yl)-1H-indazole-6-carbonyl)piperazin-2-one]
42% | 164 to 168 °C | – | Cc1nn(-c2ncc(-c3cc([S+](C)[O-])ccc3F)cn2)c2cc(C(=O)N(C)CC(N)=O)ccc12 (stereo not shown) [Compound No. 64, N-(2-Amino-2-oxoethyl)-1-(5-(2-fluoro-5-(methylsulfinyl)phenyl)pyrimidin-2-yl)-N,3-dimethyl-1H-indazole-6-carboxamide]
– | 217 to 221 °C | 95% | CN1CCN(C(=O)c2ccc3c(C4CC4)nn(-c4ncc(-c5ccccc5F)cn4)c3c2)CC1=O [Compound No. 17, 4-(3-Cyclopropyl-1-(5-(2-fluorophenyl)pyrimidin-2-yl)-1H-indazole-6-carbonyl)-1-methylpiperazin-2-one]
– | 260 to 263 °C | 96% | O=C(c1ccc2c(C3CC3)nn(-c3ncc(-c4ccccn4)cn3)c2c1)N1CCOCC1 [Compound No. 30, (3-Cyclopropyl-1-(5-(pyridin-2-yl)pyrimidin-2-yl)-1H-indazol-6-yl)(morpholino)methanone]
117% | 256 to 260 °C | – | CC(O)c1ccc(F)c(-c2cnc(-n3nc(C4CC4)c4ccc(C(=O)N5CCOCC5)cc43)nc2)c1 (stereo not shown) [Compound No. 52, (3-Cyclopropyl-1-(5-(2-fluoro-5-(1-hydroxyethyl)phenyl)pyrimidin-2-yl)-1H-indazol-6-yl)(morpholino)methanone]
75% | 255 to 259 °C | – | Cc1nn(-c2ncc(-c3cc(S(C)(=O)=O)ccc3F)cn2)c2cc(C(=O)N(C)CC(N)=O)ccc12 [Compound No. 63, N-(2-Amino-2-oxoethyl)-1-(5-(2-fluoro-5-(methylsulfonyl)phenyl)pyrimidin-2-yl)-N,3-dimethyl-1H-indazole-6-carboxamide]
– | 218 to 222 °C | 92% | O=C(c1ccc2c(C3CC3)nn(-c3ncc(-c4ccccc4)cn3)c2c1)N1CCOCC1 [Compound No. 14, (3-Cyclopropyl-1-(5-phenylpyrimidin-2-yl)-1H-indazol-6-yl)(morpholino)-methanone]
– | 175 to 179 °C | 96% | O=C1CN(C(=O)c2ccc3c(C4CC4)nn(-c4ncc(-c5ccccc5)cn4)c3c2)CCN1 [Compound No. 15, 4-(3-Cyclopropyl-1-(5-phenylpyrimidin-2-yl)-1H-indazole-6-carbonyl)piperazin-2-one]
106% | – | – | CCc1ccc(F)c(-c2cnc(-n3nc(C(C)O)c4ccc(C(=O)N(C)CC(N)=O)cc43)nc2)c1 (stereo not shown) [Compound No. 68, N-(2-Amino-2-oxoethyl)-1-(5-(5-ethyl-2-fluorophenyl)pyrimidin-2-yl)-3-(1-hydroxyethyl)-N-methyl-1H-indazole-6-carboxamide]
